# Reference: patent publication US20260116868A1 (Arcus Biosciences, Inc., priority 2023, published 2026)
# Target: T1, Cbl-b (Homo sapiens, UniProt Q13191)
# T1 construct: biotin (biotinylated protein)
# Experiment: Cbl-b probe displacement HTRF binding assay
# Details: 0.4 nM Cbl-b, 150 nM BODIPY probe
# In short: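 Binding IC50 from four-parameter fit of HTRF signal loss, normalised to DMSO (0%) and no-protein (100%) wells. Biotinylated Cbl-b 0.4 nM was preincubated 60 min with compound (20-point 1:2 dilution) before 15 min with 150 nM BODIPY probe; Tb-streptavidin detection.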
# T1 sequence (Q13191 whole entry, species assumed): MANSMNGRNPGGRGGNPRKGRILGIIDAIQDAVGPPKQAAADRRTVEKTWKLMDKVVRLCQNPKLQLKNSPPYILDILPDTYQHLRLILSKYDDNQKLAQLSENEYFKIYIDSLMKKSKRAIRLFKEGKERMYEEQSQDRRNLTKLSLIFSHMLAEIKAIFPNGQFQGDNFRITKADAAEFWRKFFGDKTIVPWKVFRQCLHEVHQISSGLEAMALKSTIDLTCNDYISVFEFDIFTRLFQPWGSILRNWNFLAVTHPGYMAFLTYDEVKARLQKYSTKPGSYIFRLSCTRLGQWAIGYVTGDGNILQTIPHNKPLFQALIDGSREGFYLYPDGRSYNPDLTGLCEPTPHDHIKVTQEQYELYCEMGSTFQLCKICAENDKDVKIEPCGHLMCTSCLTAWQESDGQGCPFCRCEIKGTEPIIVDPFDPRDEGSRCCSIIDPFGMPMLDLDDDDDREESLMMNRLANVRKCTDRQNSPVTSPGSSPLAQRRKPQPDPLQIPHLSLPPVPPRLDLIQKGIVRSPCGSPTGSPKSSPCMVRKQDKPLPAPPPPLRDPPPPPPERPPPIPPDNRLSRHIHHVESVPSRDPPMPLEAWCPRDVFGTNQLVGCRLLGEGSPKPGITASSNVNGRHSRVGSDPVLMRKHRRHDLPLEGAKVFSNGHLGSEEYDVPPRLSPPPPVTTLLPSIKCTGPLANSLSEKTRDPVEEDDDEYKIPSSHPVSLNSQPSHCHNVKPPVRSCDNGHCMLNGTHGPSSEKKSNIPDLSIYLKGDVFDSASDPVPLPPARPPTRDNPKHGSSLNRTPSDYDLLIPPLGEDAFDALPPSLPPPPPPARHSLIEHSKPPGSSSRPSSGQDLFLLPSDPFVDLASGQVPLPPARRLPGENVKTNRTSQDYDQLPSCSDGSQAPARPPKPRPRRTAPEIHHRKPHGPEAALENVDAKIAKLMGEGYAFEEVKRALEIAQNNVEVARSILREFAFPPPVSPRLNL
row,Structure (SMILES),IC50
1,COc1ccc(-c2cc(NC(=O)c3cc(CN[C@@H](C)C4CCC4)cn(C4CC4)c3=O)nc(OC(C)C)c2)c(C(=O)N2CC(F)C2)c1 [Example 254],< 100 nM
2,CCOc1cc(-c2ccc(OC(F)F)cc2C(=O)N2CC(F)C2)cc(NC(=O)c2cc(CN[C@@H](C)C3CCC3)cn(C)c2=O)n1 [Example 257],< 100 nM
3,CC(C)Oc1cc(-c2ccc(OC(F)F)cc2C(=O)N2CC(F)(F)C2)cc(NC(=O)c2cc(CN[C@@H](C)C3CCC3)cn(C)c2=O)n1 [Example 112],< 100 nM
4,"CC(C)Oc1cc(-c2ccc(OC(F)F)cc2C(=O)N2CC(F)(F)C2)cc(NC(=O)c2cc(CN[C@@H](C)C3CC3)cn(C)c2=O)n1 [Example 115, N-(4-{2-[(3,3-difluoro-1-azetidinyl)carbonyl]-4-difluoromethoxyphenyl}-6-isopropoxy-2-pyridyl)-5-{[(S)-1-cyclopropylethylamino]methyl}-1-methyl-2-oxo-1,2-dihydronicotinamide]",< 100 nM
5,"Cn1cc(CNC[C@@H]2COCCO2)cc(C(=O)Nc2cc(-c3ccc(OC(F)F)cc3C(=O)N3CC(F)(F)C3)cc(C3CC3)n2)c1=O [Example 110, N-(6-cyclopropyl-4-{2-[(3,3-difluoro-1-azetidinyl)carbonyl]-4-difluoromethoxyphenyl}-2-pyridyl)-5-[({[(R)-1,4-dioxan-2-yl]methyl}amino)methyl]-1-methyl-2-oxo-1,2-dihydronicotinamide]",< 100 nM
6,COc1ccc(-c2cc(NC(=O)c3cc(CNC[C@H](C)OC)cn(C4CC4)c3=O)nc(C3CC3)c2)c(C(=O)N2CC(F)C2)c1 [Example 270],< 100 nM
7,COc1ccc(-c2cc(NC(=O)c3cc(CNC[C@H](C)OC)cn(C)c3=O)nc(OC(C)C)c2)c(C(=O)N2CC(F)(F)C2)c1 [Example 308],< 100 nM
8,CO[C@@H](C)CNCc1cc(C(=O)Nc2cc(-c3ccc(C#N)cc3C(=O)N3CC(F)(F)C3)cc(C3CC3)n2)c(=O)n(C)c1 [Example 178],< 100 nM
9,COc1ccc(-c2cc(NC(=O)c3cc(CNCC(C)C)cn(C)c3=O)nc(C3CC3)c2)c(C(=O)N2CC(F)C2)c1 [Example 315],< 100 nM
10,C[C@H](NCc1cc(C(=O)Nc2cc(-c3ccc(OC(F)F)cc3C(=O)N3CC(F)C3)cc(OC3CC3)n2)c(=O)n(C)c1)C1CCC1 [Example 262],< 100 nM
11,Cc1ccc(-c2cc(NC(=O)c3cc(CNC[C@@H]4CCCO4)cn(C4CC4)c3=O)nc(OC(C)C)c2)c(C(=O)N2CC(F)C2)c1 [Example 309],< 100 nM
12,Cn1cc(CNC[C@@H]2CCCO2)cc(C(=O)Nc2cc(-c3ccc(OC(F)F)cc3C(=O)N3CC(F)(F)C3)cc(C3CC3)n2)c1=O [Example 185],< 100 nM
13,N#Cc1ccc(-c2cc(NC(=O)c3cc(CNCCC(F)F)cn(C4CC4)c3=O)nc(C3CC3)c2)c(C(=O)N2CC(F)(F)C2)c1 [Example 381],< 100 nM
14,C[C@H](NCc1cc(C(=O)Nc2cc(-c3ccc(C#N)cc3C(=O)N3CC(F)(F)C3)cc(C3CC3)n2)c(=O)n(CC(F)(F)F)c1)C1CC1 [Example 188],< 100 nM
15,"CCOc1cc(-c2ccc(Cl)cc2C(=O)N2CC(F)(F)C2)cc(NC(=O)c2cc(CNC[C@H](C)OC)cn(C3CC3)c2=O)n1 [Example 123, N-(4-{4-chloro-2-[(3,3-difluoro-1-azetidinyl)carbonyl]phenyl}-6-ethoxy-2-pyridyl)-1-cyclopropyl-5-{[(S)-2-methoxypropylamino]methyl}-2-oxo-1,2-dihydronicotinamide]",< 100 nM
16,COCCNCc1cc(C(=O)Nc2cc(-c3ccc(Cl)cc3C(=O)N3CC4(COC4)C3)cc(C3CC3)n2)c(=O)n(C2CC2)c1 [Example 306],< 100 nM
17,CCOc1cc(-c2ccc(C#N)cc2C(=O)N2CC(F)(F)C2)cc(NC(=O)c2cc(CNC[C@@H]3CCCO3)cn(C)c2=O)n1 [Example 183],< 100 nM
18,CO[C@@H](C)CNCc1cc(C(=O)Nc2cc(-c3ccc(F)cc3C(=O)N3CC(F)(F)C3)cc(OC(C)C)n2)c(=O)n(C)c1 [Example 387],< 100 nM
19,CCNc1cc(-c2ccc(C#N)cc2C(=O)N2CC(F)(F)C2)cc(NC(=O)c2cc(CNCCOC)cn(C3CC3)c2=O)n1 [Example 346],< 100 nM
20,CO[C@@H](C)CNCc1cc(C(=O)Nc2cc(-c3ccc(C#N)cc3C(=O)N3CC(F)(F)C3)cc(OC(C)C)n2)c(=O)n(C2CC2)c1 [Example 339],< 100 nM
21,"CCOc1cc(-c2ccc(Cl)cc2C(=O)N2CC(F)(F)C2)cc(NC(=O)c2cc(CNCC3(F)CCC3)cn(C3CC3)c2=O)n1 [Example 121, N-(4-{4-chloro-2-[(3,3-difluoro-1-azetidinyl)carbonyl]phenyl}-6-ethoxy-2-pyridyl)-1-cyclopropyl-5-({[(1-fluorocyclobutyl)methyl]amino}methyl)-2-oxo-1,2-dihydronicotinamide]",< 100 nM

# Second part, the molecule after the results:
row,IC50,Structure (SMILES)
1,< 100 nM,COc1ccc(-c2cc(NC(=O)c3cc(CNC[C@@H]4CCCO4)cn(C)c3=O)nc(C3CC3)c2)c(C(=O)N2CC(F)C2)c1 [Example 319]
2,< 100 nM,"CC(C)Oc1cc(-c2ccc(C#N)cc2C(=O)N2CC(F)(F)C2)cc(NC(=O)c2cc(CN[C@@H](C)C3CCC3)cn(C)c2=O)n1 [Example 100, N-[4-[4-cyano-2-(3,3-difluoroazetidine-1-carbonyl)phenyl]-6-propan-2-yloxypyridin-2-yl]-5-[[[(1S)-1-cyclobutylethyl]amino]methyl]-1-methyl-2-oxopyridine-3-carboxamide]"
3,< 100 nM,CC(C)Oc1cc(-c2ccc(C#N)cc2C(=O)N2CC(F)(F)C2)cc(NC(=O)c2cc(CNC[C@@H]3COCCO3)cn(C3CC3)c2=O)n1 [Example 371]
4,< 100 nM,COc1ccc(-c2cc(NC(=O)c3cc(CNC[C@H](C)OC)cn(C4CC4)c3=O)nc(OC(C)C)c2)c(C(=O)N2CC(F)C2)c1 [Example 261]
5,< 100 nM,"CC(C)CNCc1cc(C(=O)Nc2cc(-c3ccc(OC(F)F)cc3C(=O)N3CC(F)(F)C3)cc(OC(C)C)n2)c(=O)n(C2CC2)c1 [Example 99, N-(4-{2-[(3,3-difluoro-1-azetidinyl)carbonyl]-4-difluoromethoxyphenyl}-6-isopropoxy-2-pyridyl)-1-cyclopropyl-5-[(isobutylamino)methyl]-2-oxo-1,2-dihydronicotinamide]"
6,< 100 nM,CO[C@@H](C)CNCc1cc(C(=O)Nc2cc(-c3ccc(C#N)cc3C(=O)N3CC(F)(F)C3)cc(C3CC3)n2)c(=O)n(CC(F)(F)F)c1 [Example 174]
7,< 100 nM,CO[C@@H](C)CNCc1cc(C(=O)Nc2cc(-c3c(F)cc(Cl)cc3C(=O)N3CC(F)(F)C3)cc(NC(C)C)n2)c(=O)n(C2CC2)c1 [Example 198]
8,< 100 nM,CCOc1cc(-c2ccc(Cl)cc2C(=O)N2CC(F)(F)C2)cc(NC(=O)c2cc(CNC[C@H](C)OC)cn(C)c2=O)n1 [Example 180]
9,< 100 nM,CO[C@@H](C)CNCc1cc(C(=O)Nc2cc(-c3ccc(C#N)cc3C(=O)N3CC(F)(F)C3)cc(N(C)C)n2)c(=O)n(C2CC2)c1 [Example 191]
10,< 100 nM,O=C(Nc1cc(-c2ccc(Cl)cc2C(=O)N2CC(F)(F)C2)cc(C2CC2)n1)c1cc(CNCC2CCC2)cn(C2CC2)c1=O [Example 370]
11,< 100 nM,Cc1ccc(-c2cc(NC(=O)c3cc(CN[C@@H](C)C4CCC4)cn(C4CC4)c3=O)nc(OC(C)C)c2)c(C(=O)N2CC(F)C2)c1 [Example 277]
12,< 100 nM,COCCNCc1cc(C(=O)Nc2cc(-c3ccc(C#N)cc3C(=O)N3CC(F)(F)C3)cc(C3CC3)n2)c(=O)n(C2CC2)c1 [Example 374]
